Laboratory results reported in publication PMC10674565 (Pharmaceuticals, 2023).

Tests used:
[1] = test system: chronic brain ischemia; parameters: method as in PMID 34932280; conditions: 318 patients with chronic brain ischemia; cited from earlier work
[2] = biological target: ABCB1 (Homo sapiens, UniProt P08183); assay: EMHPS transport through the Caco-2 cells monolayer (ABCB1 substrate test); assay type: in vitro ADME; parameters: Caco-2 cells were used to test the effect of EMHPS on the expression and activity of ABCB1; endogenous in cells; host or cells: Caco-2
ABCB1, sequence (P08183 whole entry): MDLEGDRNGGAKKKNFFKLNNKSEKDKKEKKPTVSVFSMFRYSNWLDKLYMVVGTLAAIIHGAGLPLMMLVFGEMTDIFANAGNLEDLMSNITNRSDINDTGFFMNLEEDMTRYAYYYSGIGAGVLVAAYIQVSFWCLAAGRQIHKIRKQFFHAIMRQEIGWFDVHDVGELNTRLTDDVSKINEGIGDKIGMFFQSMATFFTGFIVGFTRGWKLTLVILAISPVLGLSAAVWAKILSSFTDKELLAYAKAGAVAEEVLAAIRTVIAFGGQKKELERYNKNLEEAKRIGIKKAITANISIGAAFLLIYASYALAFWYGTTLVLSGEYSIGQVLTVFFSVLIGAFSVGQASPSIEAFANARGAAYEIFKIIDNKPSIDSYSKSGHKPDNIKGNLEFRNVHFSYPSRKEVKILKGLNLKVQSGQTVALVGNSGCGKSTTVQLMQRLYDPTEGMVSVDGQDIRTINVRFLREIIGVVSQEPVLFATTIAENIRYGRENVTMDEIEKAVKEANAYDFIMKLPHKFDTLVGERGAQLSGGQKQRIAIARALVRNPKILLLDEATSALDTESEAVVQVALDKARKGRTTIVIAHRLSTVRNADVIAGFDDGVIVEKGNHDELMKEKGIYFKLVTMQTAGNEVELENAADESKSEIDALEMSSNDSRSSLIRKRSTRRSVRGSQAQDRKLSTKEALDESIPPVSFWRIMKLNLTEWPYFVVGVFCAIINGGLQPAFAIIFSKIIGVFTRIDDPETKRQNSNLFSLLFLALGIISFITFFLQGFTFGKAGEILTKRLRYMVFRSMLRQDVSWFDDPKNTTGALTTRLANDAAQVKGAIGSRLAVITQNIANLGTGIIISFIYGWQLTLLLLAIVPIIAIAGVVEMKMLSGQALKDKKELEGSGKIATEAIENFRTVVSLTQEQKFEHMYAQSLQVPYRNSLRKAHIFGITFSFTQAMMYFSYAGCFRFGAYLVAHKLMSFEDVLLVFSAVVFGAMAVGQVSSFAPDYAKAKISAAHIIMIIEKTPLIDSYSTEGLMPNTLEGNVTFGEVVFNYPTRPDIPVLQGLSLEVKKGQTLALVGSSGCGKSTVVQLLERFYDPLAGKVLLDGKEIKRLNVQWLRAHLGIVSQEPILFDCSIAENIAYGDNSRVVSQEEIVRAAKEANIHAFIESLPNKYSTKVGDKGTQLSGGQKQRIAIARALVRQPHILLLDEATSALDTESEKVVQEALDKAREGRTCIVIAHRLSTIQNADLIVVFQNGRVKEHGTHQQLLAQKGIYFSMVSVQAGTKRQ
Protocol: The medium was changed every 2–3 days.
The medium in chambers was removed and the cell monolayers were washed twice in warm (37 °C) transport medium (Hanks‚ balanced salt solution containing 10 mM HEPES and 1% dimethylsulfoxide (DMSO)). […] Chamber–recipient was filled with transport medium without EMHPS. At 60, 120, and 180 min, 100 μL samples were taken from the recipient chamber and the drug concentration was analyzed. EMHPS transport was assessed in the absorptive (apical to basolateral, a-b) and secretory (b-a) directions.
The apparent permeability (Papp) of EMHPS through Caco-2 monolayers was calculated using Equation (1). (1) Papp=dQ/dt×1/A×C0
A, membrane surface area (1.12 cm^2); C0, EMHPS concentration at t = 0 µM; and dQ/dt, amount of EMHPS transported within a given time period µM/s.
The ratio of Papp (b-a) and Papp (a-b), known as the efflux ratio (ER), was calculated in accordance with the following Equation (2):(2) ER=Papp b-a/Papp a-b
The ER was used as a marker for permeability through Caco-2 cell monolayers.
EMHPS concentrations in the transport medium (transport experiments with Caco-2 cells) were analyzed using HPLC-UV (HPLC chromatograph Stayer) with UV detection at a wavelength of 296 nm. The sample (50 µL) was diluted in 150 µL of the mobile phase, and 100 µL of the resulting solution was injected into the chromatograph. In the analysis, a Beckman Coulter 4.6 × 150 mm, 5 μm chromatographic column was used.
The separation temperature was 35 °C. The flow rate was 0.8 mL/min. Mobile phase composition: acetonitrile and water in a 20:80 v/v ratio with the addition of acetic acid to pH 3.25. The retention time of EMHPS under these conditions was 5.5 min.

[3] = biological target: T1, SLCO1B1 (Homo sapiens, UniProt Q9Y6L6); conditions: HEK293-SLCO1B1 vs HEK293, 10 µM
T1 sequence (Q9Y6L6 1-691): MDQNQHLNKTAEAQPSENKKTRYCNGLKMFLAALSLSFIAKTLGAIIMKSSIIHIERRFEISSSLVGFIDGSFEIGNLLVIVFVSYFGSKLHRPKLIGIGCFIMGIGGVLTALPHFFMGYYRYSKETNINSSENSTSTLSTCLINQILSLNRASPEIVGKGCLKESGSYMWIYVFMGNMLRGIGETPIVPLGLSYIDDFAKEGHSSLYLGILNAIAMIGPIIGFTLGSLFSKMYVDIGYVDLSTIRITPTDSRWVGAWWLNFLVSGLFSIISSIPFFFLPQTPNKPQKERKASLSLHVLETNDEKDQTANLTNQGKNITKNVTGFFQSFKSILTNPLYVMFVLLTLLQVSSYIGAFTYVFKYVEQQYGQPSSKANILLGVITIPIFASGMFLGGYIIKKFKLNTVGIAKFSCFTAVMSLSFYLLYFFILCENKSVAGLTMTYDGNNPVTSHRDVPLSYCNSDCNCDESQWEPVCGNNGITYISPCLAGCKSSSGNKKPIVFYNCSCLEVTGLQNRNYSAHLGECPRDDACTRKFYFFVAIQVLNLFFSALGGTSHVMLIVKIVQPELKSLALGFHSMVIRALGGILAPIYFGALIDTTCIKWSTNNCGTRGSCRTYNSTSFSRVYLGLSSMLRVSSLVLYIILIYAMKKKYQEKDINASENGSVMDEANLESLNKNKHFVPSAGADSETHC

[4] = parameters: method as in earlier work; conditions: blood plasma; cited from earlier work
[5] = test system: CYP3A4 isoenzyme; parameters: method as in PMID 21254598; conditions: cited from earlier work
[6] = biological target: T1, SLCO1B1; assay: Inhibition of SLCO1B1-mediated uptake of atorvastatin in HEK293-SLCO1B1 cells; assay type: in vitro ADME; parameters: The SLCO1B1 gene was obtained via synthesis and was cloned into the pEGFP-N1 vector; expressed in transfected cells; host or cells: HEK293
Protocol: As a positive inhibition control, rifampicin at similar concentrations was used. Three independent experiments were performed. […] Proteins were precipitated by adding acetonitrile in a 1:1 ratio to the sample. […] The mobile phase gradient program was as follows: 0-0.6 min-35% A and 65% B, 0.6-5.0 min-5% A and 95% B, 5.0-8.0 min-35% A and 65% B. The flow rate and the column temperature were maintained at 300 μL/min and 35 °C. Aliquots (2 μL) of the extracted samples were injected.

[7] = human, EMHPS 10 µM, Caco-2 monolayer, M ± SD
[8] = human, EMHPS 100 µM, Caco-2 monolayer, M ± SD
[9] = human, EMHPS 250 µM, Caco-2 monolayer, M ± SD
[10] = human, HEK293-SLCO1B1 cells, pH 7.4, probe atorvastatin 1 µM

## CCc1nc(C)ccc1O.O=C(O)CCC(=O)O [EMHPS, 2-Ethyl-6-methyl-3-hydroxypyridine succinate]
[1]
  benefit over the placebo in basic neurological tests: statistically significant benefit
[2]; Caco-2 monolayer, 10, 100, and 250 µM
  substrate of ABCB1: not a substrate of ABCB1
[2]; [7]
  Papp A→B at 180 min, 10 µM: 7.66 ×10⁻⁶ cm/s
  Papp B→A at 180 min, 10 µM: 7.56 ×10⁻⁶ cm/s
[2]; human, EMHPS 10 µM, Caco-2 monolayer, M ± SD, read-out: ER (Papp b-a/Papp a-b)
  efflux ratio at 180 min, 10 µM: 0.99 ± 0.323
[2]; [8]
  Papp A→B at 180 min, 100 µM: 7.05 ×10⁻⁶ cm/s
  Papp B→A at 180 min, 100 µM: 6.63 ×10⁻⁶ cm/s
[2]; human, EMHPS 100 µM, Caco-2 monolayer, M ± SD, read-out: ER (Papp b-a/Papp a-b)
  efflux ratio at 180 min, 100 µM: 0.94 ± 0.039
[2]; [9]
  Papp A→B at 180 min, 250 µM: 22.3 ×10⁻⁶ cm/s
  Papp B→A at 180 min, 250 µM: 16.5 ×10⁻⁶ cm/s
[2]; human, EMHPS 250 µM, Caco-2 monolayer, M ± SD, read-out: ER (Papp b-a/Papp a-b)
  efflux ratio at 180 min, 250 µM: 0.75 ± 0.26
[2]; human, all concentrations (10, 100, and 250 µM), Caco-2 monolayer, read-out: ER (Papp b-a/Papp a-b)
  efflux ratio at 180 min: ~1
[3]
  substrate of SLCO1B1: not a substrate of SLCO1B1
[4]
  Cmax: 390 nM
[5]
  effect on CYP3A4 isoenzyme: inducer
[6]
  IC50: 12.1 ± 7.64 µM
[6]; [10]
  inhibition at 100 µM: 64.7%
  inhibition at 500 µM: 90.6%
